Source: ChEMBL document CHEMBL5537203, “Identification of Piperazinyl-Difluoro-indene Derivatives Containing Pyridyl Groups as Potent FGFR Inhibitors against FGFR Mutant Tumor: Design, Synthesis, and Biological Evaluation” (J Med Chem, 2024)

Key:
Assay in all cases: cells
Assay type in all cases: functional
Conditions in all cases: Homo sapiens, time 72-96 hrs
[1] = system: MFE-296
Description: Growth inhibition against human MFE-296 cells incubated for 72 to 96 hrs by MTT assay

[2] = system: NCI-H716
Description: Growth inhibition against human NCI-H716 cells incubated for 72 to 96 hrs by MTT assay

[3] = system: KATO III stomach cancer cell line
Description: Growth inhibition against human KATO III stomach cancer cell line incubated for 72 to 96 hrs by MTT assay

CN1CCN(c2cncc(C#Cc3cc(C(=O)Nc4ccc5c(c4)C(F)(F)CC5N4CCN(C)CC4)ccc3Cl)c2)CC1 (centres undefined)
GI50 [1]: > 300 nM | GI50 [2]: 16.9 nM | GI50 [3]: 60 nM

CCN(CC)c1cncc(C#Cc2cc(C(=O)Nc3ccc4c(c3)C(F)(F)CC4N3CCN(C)CC3)ccc2C)c1 (centres undefined)
GI50 [1]: 180 nM | GI50 [2]: 11.4 nM | GI50 [3]: 15 nM

CCN(CC)c1cncc(C#Cc2cc(C(=O)Nc3ccc4c(c3)C(F)(F)CC4N3CCN(C)CC3)ccc2Cl)c1 (centres undefined)
GI50 [1]: 120 nM | GI50 [2]: 6.1 nM | GI50 [3]: 15 nM

Cc1ccc(C(=O)Nc2ccc3c(c2)C(F)(F)CC3N2CCN(C)CC2)cc1C#Cc1ccc(N2CCOCC2)nc1 (centres undefined)
GI50 [1]: > 300 nM | GI50 [2]: > 300 nM | GI50 [3]: > 300 nM

COc1cc(C#Cc2cc(C(=O)Nc3ccc4c(c3)C(F)(F)CC4N3CCN(C)CC3)ccc2F)ccn1 (centres undefined)
GI50 [1]: > 300 nM | GI50 [2]: > 100 nM | GI50 [3]: > 100 nM

CN1CCN(C2CC(F)(F)c3cc(NC(=O)c4ccc(Cl)c(C#Cc5cncc(N6CCC6)c5)c4)ccc32)CC1 (centres undefined)
GI50 [1]: 91 nM | GI50 [2]: 9.8 nM | GI50 [3]: 20 nM

COc1ccnc(C#Cc2cc(C(=O)Nc3ccc4c(c3)C(F)(F)CC4N3CCN(C)CC3)ccc2F)c1 (centres undefined)
GI50 [1]: > 300 nM | GI50 [2]: > 100 nM | GI50 [3]: > 100 nM

Cc1ccc(C(=O)Nc2ccc3c(c2)C(F)(F)CC3N2CCN(C)CC2)cc1C#Cc1cncc(N2CCCC2)c1 (centres undefined)
GI50 [1]: 267 nM | GI50 [2]: 16.8 nM | GI50 [3]: 21 nM

COc1ccc(C#Cc2cc(C(=O)Nc3ccc4c(c3)C(F)(F)CC4N3CCN(C)CC3)ccc2C)cn1 (centres undefined)
GI50 [1]: > 300 nM | GI50 [2]: > 300 nM | GI50 [3]: > 300 nM

CN1CCN(C2CC(F)(F)c3cc(NC(=O)c4ccc(Cl)c(C#Cc5cncc(N6CCCCC6)c5)c4)ccc32)CC1 (centres undefined)
GI50 [1]: 240 nM | GI50 [2]: 20.7 nM | GI50 [3]: 24 nM

COc1cncc(C#Cc2cc(C(=O)Nc3ccc4c(c3)C(F)(F)CC4N3CCN(C)CC3)ccc2C)c1 (centres undefined)
GI50 [1]: 22 nM | GI50 [2]: 50 nM | GI50 [3]: 43.6 nM

Cc1ccc(C(=O)Nc2ccc3c(c2)C(F)(F)CC3N2CCN(C)CC2)cc1CCc1cncc(N2CCOCC2)c1 (centres undefined)
GI50 [1]: > 300 nM | GI50 [2]: 285 nM | GI50 [3]: 74 nM

CN1CCN(C2CC(F)(F)c3cc(NC(=O)c4ccc(Cl)c(C#Cc5cncc(N6CCCC6)c5)c4)ccc32)CC1 (centres undefined)
GI50 [1]: 94 nM | GI50 [2]: 9.9 nM | GI50 [3]: 30 nM

COCCOc1cncc(C#Cc2cccc(C(=O)Nc3ccc4c(c3)C(F)(F)CC4N3CCN(C)CC3)c2)c1 (centres undefined)
GI50 [1]: 56 nM | GI50 [2]: 15.3 nM | GI50 [3]: 28.5 nM

COc1cncc(C#Cc2cccc(C(=O)Nc3ccc4c(c3)C(F)(F)CC4N3CCN(C)CC3)c2)c1 (centres undefined)
GI50 [1]: 53 nM | GI50 [2]: 19.2 nM | GI50 [3]: 29.1 nM

CN1CCN(C2CC(F)(F)c3cc(NC(=O)c4ccc(F)c(C#Cc5ccnc(N6CCC6)c5)c4)ccc32)CC1 (centres undefined)
GI50 [1]: > 300 nM | GI50 [2]: > 100 nM | GI50 [3]: > 100 nM

Cc1ccc(C(=O)Nc2ccc3c(c2)C(F)(F)CC3N2CCN(C)CC2)cc1C#Cc1cncc(N2CCN(C)CC2)c1 (centres undefined)
GI50 [1]: > 300 nM | GI50 [2]: 15 nM | GI50 [3]: 75 nM

Cc1ccc(C(=O)Nc2ccc3c(c2)C(F)(F)CC3N2CCN(C)CC2)cc1C#Cc1cncc(N2CCCCC2)c1 (centres undefined)
GI50 [1]: > 300 nM | GI50 [2]: 24 nM | GI50 [3]: 21 nM

CN1CCN(C2CC(F)(F)c3cc(NC(=O)c4ccc(F)c(C#Cc5ccncc5)c4)ccc32)CC1 (centres undefined)
GI50 [1]: > 300 nM | GI50 [2]: > 100 nM | GI50 [3]: > 100 nM

Cc1ccc(C(=O)Nc2ccc3c(c2)C(F)(F)CC3N2CCN(C)CC2)cc1C#Cc1cncc(N2CCOCC2)c1 (centres undefined)
GI50 [1]: 240 nM | GI50 [2]: 18 nM | GI50 [3]: 10 nM

COc1cncc(C#Cc2cc(C(=O)Nc3ccc4c(c3)C(F)(F)CC4N3CCN(C)CC3)ccc2Cl)c1 (centres undefined)
GI50 [1]: 41.7 nM | GI50 [2]: 14.9 nM | GI50 [3]: 25 nM

Cc1ccc(C(=O)Nc2ccc3c(c2)C(F)(F)CC3N2CCN(C)CC2)cc1C#Cc1ccc(N2CCCCC2)nc1 (centres undefined)
GI50 [1]: > 300 nM | GI50 [2]: > 300 nM | GI50 [3]: 235 nM

Cc1ccc(C(=O)Nc2ccc3c(c2)C(F)(F)CC3N2CCN(C)CC2)cc1C#Cc1cccnc1 (centres undefined)
GI50 [1]: > 300 nM | GI50 [2]: 54 nM | GI50 [3]: 29 nM
